Reference: patent US4185156A, “Peptides and acid addition salts thereof” (Zaidan Hojin Biseibutsu Kagaku Kenkyu Kai, priority 1977, dated 1980)

Assays:
aminopeptidase B [1] = target: T1, aminopeptidase B (Rattus norvegicus, UniProt O09175); experiment: Inhibitory activity against aminopeptidase B (modified Hopsu et al. method, arginine-β-naphthylamide substrate); assay type: biochemical; settings: pH 7.0, 37° C., 30-minute reaction
T1 construct: an aminopeptidase B solution purified by using Sephadex G-100; from tissue; rat liver in the cited Hopsu et al. method (own knowledge)
T1 sequence (O09175 1-650): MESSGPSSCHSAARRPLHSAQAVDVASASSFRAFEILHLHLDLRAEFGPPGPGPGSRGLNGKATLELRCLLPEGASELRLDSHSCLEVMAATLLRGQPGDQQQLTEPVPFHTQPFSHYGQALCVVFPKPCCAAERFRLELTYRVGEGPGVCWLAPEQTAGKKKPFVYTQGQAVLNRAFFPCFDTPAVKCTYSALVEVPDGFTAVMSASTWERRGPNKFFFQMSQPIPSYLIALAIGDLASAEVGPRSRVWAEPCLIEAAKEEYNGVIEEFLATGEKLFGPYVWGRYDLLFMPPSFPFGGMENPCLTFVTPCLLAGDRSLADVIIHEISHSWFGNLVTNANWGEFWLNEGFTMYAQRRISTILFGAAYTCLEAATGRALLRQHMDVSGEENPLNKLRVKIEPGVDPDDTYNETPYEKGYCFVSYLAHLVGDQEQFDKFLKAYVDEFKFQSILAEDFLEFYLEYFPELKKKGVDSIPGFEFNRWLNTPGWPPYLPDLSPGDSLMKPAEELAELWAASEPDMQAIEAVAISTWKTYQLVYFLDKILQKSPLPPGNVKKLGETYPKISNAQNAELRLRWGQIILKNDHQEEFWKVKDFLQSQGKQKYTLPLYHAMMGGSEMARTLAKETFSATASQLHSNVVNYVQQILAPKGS
Method: A modified version of the Hopsu et al. method (V. K. Hopsu, K. K. Makinen and G. G. Glenner, Archives of Biochemistry and Biophysics 114, 557 (1966)) was used for determining the aminopeptidase B activity. A mixed solution (pH 7.0) prepared by adding 1.0 ml of 0.1 M tris-hydrochloride buffer and 0.7 ml of a solution containing the specimen to 0.3 ml of 0.1 mM arginine-β-naphthylamide was heated at 37° C. for 3 minutes and then added with 0.2 ml of an aminopeptidase B solution purified by using Sephadex G-100 (trademark for gelfiltrant composed of dextran derivative, manufactured by Pharmacia Fine Chemicals Inc.) according to the enzyme purification method of Hopsu et al. After 30-minute reaction at 37° C., 0.6 ml of 1.0 M acetate buffer (pH 4.2) containing Garnet GBC (o-aminoazotoluene diazonium salt) in concentration of 1.0 mg/ml and Tween 20 in concentration of 1.0% was added, and allowing the mixture to stand at room temperature for 15 minutes, absorbance (a) at 530 nm was measured. There was also measured absorbance (b) of the control using the buffer solution not containing the specimen. The aminopeptidase B inhibition percent was calculated from (b-a)/b×100.
Inhibition percentages at various specimen concentrations were measured according to the above-said testing method, and 50% inhibition (ID50) was induced therefrom.

[2] = system: lymphocytes from the peripheral blood of healthy canines; experiment: Lymphocyte blastoid transformation with phytohemagglutinin (PHA), 3H-Thymidine incorporation; assay type: cell-based, canines (Beagle, Male); settings: for 3H-Td.eta. incorporation (mean cpm ± SE): PHA + compound, canine lymphocytes, 72 hrs culture; for effect on lymphocyte blastoid formation with PHA (in words): summary of table 2
Method: Lymphocytes were prepared asptically from the peripheral blood of healthy canines (Beagle, Male) by gradient centrifugation of ficollsodium metriazoate. The lymphocytes (1×10^6 cells/ml) were cultured in RPMI-1640 medium with 10% fetal calf serum, antibiotic (Kanamycin 60μg/ml) and 15μg of phytohemagglutinin(PHA) at 37° C. in a humidified atomosphere of 5% CO2 and 95% air. After an incubation for 48 hrs, 2μCi of ^3 H-Thymidine was added to each dish, and the culture was continued for further 24 hrs to determine DNA synthesis. DNA synthesis was measured as ^3 H-Thymidine incorporation into acid in soluble materials.

aminopeptidase B [3] = target: T1, aminopeptidase B; settings: prior art; cited from earlier work
leucine aminopeptidase = settings: prior art; cited from earlier work
Bleomycin hydrolase = target: T2, Bleomycin hydrolase (Homo sapiens, UniProt Q13867); settings: prior art; cited from earlier work
T2 sequence (Q13867 1-455): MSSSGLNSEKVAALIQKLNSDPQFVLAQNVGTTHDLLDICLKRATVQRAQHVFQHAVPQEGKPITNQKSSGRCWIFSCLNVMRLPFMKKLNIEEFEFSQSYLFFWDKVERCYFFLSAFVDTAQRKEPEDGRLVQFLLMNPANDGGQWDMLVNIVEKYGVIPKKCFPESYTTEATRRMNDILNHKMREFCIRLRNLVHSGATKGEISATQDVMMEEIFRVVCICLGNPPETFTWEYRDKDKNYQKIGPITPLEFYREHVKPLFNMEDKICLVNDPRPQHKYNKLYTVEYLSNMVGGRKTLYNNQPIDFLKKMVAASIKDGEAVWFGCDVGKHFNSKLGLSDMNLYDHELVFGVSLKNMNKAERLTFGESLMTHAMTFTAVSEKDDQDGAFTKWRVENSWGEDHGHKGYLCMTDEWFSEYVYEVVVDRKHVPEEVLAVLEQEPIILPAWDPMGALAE

SMILES	ID50 (50% inhibition of aminopeptidase B) (aminopeptidase B [1]) [μ g/ml]	3H-Td.eta. incorporation (mean cpm ± SE) ([2]; dose 0.1 μg) [cpm]	3H-Td.eta. incorporation (mean cpm ± SE) ([2]; dose 1.0 μg) [cpm]	3H-Td.eta. incorporation (mean cpm ± SE) ([2]; dose 10.0 μg) [cpm]	effect on lymphocyte blastoid formation with PHA (in words) [2]	inhibitory activity against aminopeptidase B (in words) (aminopeptidase B [3])	inhibitory activity against leucine aminopeptidase (in words) (leucine aminopeptidase)	inhibitory activity against Bleomycin hydrolase (in words) (Bleomycin hydrolase)	IC50 (aminopeptidase B [1]; read-out: ID50 (50% inhibition of aminopeptidase B) (converted)) [nM]
CC(=O)O.CC(=O)O.Cc1ccc(CC(N)C(O)C(=O)NC(CCCN=C(N)N)C(=O)O)cc1 (racemic) [Example 3, (2RS, 3RS)-3-amino-2-hydroxy-4-p-methylphenylbutanoyl-(S)-arginine diacetate]	0.013								
N=C(N)NCCC[C@H](NC(=O)[C@@H](O)[C@H](N)Cc1ccc(O)cc1)C(=O)O [Example 2, (2S, 3R)-3-amino-2-hydroxy-4-p-hydroxyphenylbutanoyl-(S)-arginine diacetate]	0.005	23113 ± 1236	21357 ± 578	20397 ± 304	enhance the lymphocyte blastoid formation with PHA				
Cl.Cl.N=C(N)NCCC[C@H](NC(=O)[C@H](O)[C@H](N)Cc1ccccc1Cl)C(=O)O (racemic) [Example 4, (2RS, 3RS)-3-amino-2-hydroxy-4-o-chlorophenylbutanoyl-(S)-arginine dihydrochloride]	0.14								
CC(C)C[C@H](NC(=O)[C@@H](O)[C@H](N)Cc1ccccc1)C(=O)O [Bestatin, (2S, 3R)-3-amino-2-hydroxy-4-phenylbutanoyl-(S)-leucine, reference compound]		19450 ± 189	16173 ± 631	18683 ± 71	enhance the lymphocyte blastoid formation with PHA	strong inhibitory activity	strong inhibitory activity	strong inhibitory activity	324
Cl.N=C(N)NCCC[C@H](NC(=O)[C@@H](O)[C@H](N)Cc1ccccc1)C(=O)O [Example 1, (2S, 3R)-3-amino-2-hydroxy-4-phenylbutanoyl-(S)-arginine hydrochloride]	0.03	17278 ± 400	19940 ± 1412	19050 ± 1988	enhance the lymphocyte blastoid formation with PHA				
